Laboratory results: patent publication US10993939B2, “Compositions for treating or preventing vasomotor symptoms” (Mitsubishi Tanabe Pharma Corporation, priority 2016, dated 2021)

What was measured:
[1] = tested on: female subjects experiencing Vasomotor Symptoms (VMS); test: Phase Ib study: frequency of vasomotor symptoms (VMS); assay type: in vivo, human; parameters: key to Mean observed value in VMS frequency (moderate and severe VMS): moderate + severe VMS events per day
Excerpt: (§1) Study Design: This was a Phase Ib, randomized, double blind, placebo controlled study. The study design is illustrated in FIG. 2. Following the initial Screening visit, eligible subjects was given an actigraphy event monitor (watch) to record episodes of flashing as Vasomotor symptoms (VMS) events during a period of 2 weeks during Screening, in order to confirm VMS eligibility criteria (>7 VMS/day on average during 2 weeks). Subjects may be required to return to the site during the Screening period to read or exchange the actigraphy event monitor. Subjects deemed eligible following review of VMS data were invited to attend the Clinical research unit (CRU) for one residential period of 16 days duration, including 14 days of Investigational Medicinal Product (IMP) administration. Subjects were admitted to the CRU 1 day prior to dosing (Day −1). No medication was administered on Day −1. On Day 1, subjects who meet the study eligibility criteria were randomized to receive one dose level of either Compound A (6 subjects) or a matching placebo (2 subjects) in a double-blind manner. Randomized treatment was administered once nightly, starting on Day 1, for a total duration of 14 days.
Fifty (50) mg of Compound A was administered to the female subjects experiencing Vasomotor Symptoms (VMS), and as the above-mentioned assessments, a Frequency of VMS and a Core body temperature assessment were examined.
Here a moderate VMS and a severe VMS were counted as a VMS frequency.

naive SD rats = test: Evaluation of TRPM8 antagonist on core body (rectal) temperature in rats; assay type: in vivo
Protocol: Methods: Compound A (0.3 and 3 mg/kg) or vehicle was orally administered to naive SD rats (n=6). Rectal temperature was measured before, 1, 2, 3 and 6 hours after administration. AUC for 0 to 6 hours was calculated and statistically analyzed.

[2] = tested on: female subjects experiencing Vasomotor Symptoms (VMS); test: Phase Ib study: core body temperature assessment; assay type: in vivo, human; settings: 50 mg; within 24 hours post-dose on Visit Day 1, 7, 10 or 14, FIG. 4
Excerpt: as §1, with “days. […]” for “days.”

Q: Which results are given for `O=C(O)c1ccc(S(=O)(=O)N(Cc2ccc(OC(F)(F)F)cc2)c2ncc3ccccc3c2C2CC2)cc1` [Compound A, 4-({(4-cyclopropylisoquinolin-3-yl)[4-(trifluoromethoxy)benzyl]amino}sulfonyl)benzoic acid]?
A: Effect on frequency of VMS versus placebo ([1]; 50 mg once nightly, 14 days, FIG. 3): reduced the frequency of VMS significantly; Onset of the reduction effect of VMS frequency ([1]; 50 mg once nightly, FIG. 3): the reduction effect of VMS frequency was shown at Day 2 or later; Mean observed value in VMS frequency (moderate and severe VMS) ([1]; Baseline (before dosing), 50 mg group): 11.2; Mean observed value in VMS frequency (moderate and severe VMS) ([1]; Day 1, 50 mg once nightly): 11.7; Mean observed value in VMS frequency (moderate and severe VMS) ([1]; Day 2, 50 mg once nightly): 6.0; Mean observed value in VMS frequency (moderate and severe VMS) ([1]; Day 3, 50 mg once nightly): 4.7; Mean observed value in VMS frequency (moderate and severe VMS) ([1]; Day 4, 50 mg once nightly): 4.7; Mean observed value in VMS frequency (moderate and severe VMS) ([1]; Day 5, 50 mg once nightly): 2.7; Mean observed value in VMS frequency (moderate and severe VMS) ([1]; Day 6, 50 mg once nightly): 2.8; Mean observed value in VMS frequency (moderate and severe VMS) ([1]; Day 7, 50 mg once nightly): 3.0; Mean observed value in VMS frequency (moderate and severe VMS) ([1]; Day 8, 50 mg once nightly): 3.3; Mean observed value in VMS frequency (moderate and severe VMS) ([1]; Day 9, 50 mg once nightly): 1.3; Mean observed value in VMS frequency (moderate and severe VMS) ([1]; Day 10, 50 mg once nightly): 3.2; Mean observed value in VMS frequency (moderate and severe VMS) ([1]; Day 11, 50 mg once nightly): 2.8; Mean observed value in VMS frequency (moderate and severe VMS) ([1]; Day 12, 50 mg once nightly): 2.7; Mean observed value in VMS frequency (moderate and severe VMS) ([1]; Day 13, 50 mg once nightly): 2.3; Mean observed value in VMS frequency (moderate and severe VMS) ([1]; Day 14, 50 mg once nightly): 2.3; Maximum decrease in rectal temperature (amplitude) (naive SD rats; 3 mg/kg orally, at 2 hours after administration, SD rats): 0.82 °C; Rectal temperature compared to vehicle (AUC for 0 to 6 hours) (naive SD rats; 0.3 and 3 mg/kg orally, naive SD rats, P<0.01 vs vehicle, FIG. 1): significantly reduced rectal temperature; Change from baseline in core body temperature [2]: reduced the core body temperature significantly
